Test results taken from article PMC4583475, “Receptor Polymorphism and Genomic Structure Interact to Shape Bitter Taste Perception” (PLoS Genetics, 2015).

Experiments:
TAS2R46-H3 = assay: Calcium imaging in HEK 293T Gα16gust44 cells transfected with TAS2R46-H3; format: cell-based, human
Description: (§1) Allelic responses to agonists were quantified using in vitro heterologous expression assays designed in previous studies of TAS2R receptor function, which successfully mimic responses in vivo with respect to both magnitude and concentration range [17, 23, 25, 26, 46]. DNA fragments containing TAS2R coding sequences were first amplified from genomic DNA by PCR using a proofreading polymerase (PfuUltra II Fusion HotStart DNA Polymerase; Agilent Technologies, Santa Clara, CA, USA) and cloned into a plasmid vector according to the manufacturer’s protocol (Zero Blunt TOPO PCR Cloning Kit; Life Technologies). A second PCR was performed using specific cloning primers to facilitate subcloning into the expression vector, which was then modified to add an N-terminal signal for cell surface localisation and a C-terminal epitope for immunocytochemical detection to the receptor sequence (Fast Link DNA Ligation Kit; Epicentre, Illumina Inc., Madison, WI, USA) (pcDNA5/FRT Mammalian Expression Vector; Life Technologies). Empty vector was used as a negative control.
(§2) Functional assays were carried out in HEK 293T cells stably expressing the G protein chimera Gα16gust44 and transiently transfected with TAS2R alleles subcloned into the expression vector [78]. Calcium imaging was performed using an automated fluorometric imaging plate reader by exposing transfected cells to test compounds dissolved in assay buffer or to assay buffer alone (FLIPR Tetra; Molecular Devices, LLC, Sunnyvale, CA, USA). Changes in cytosolic calcium levels were monitored by measuring fluorescence intensity of a calcium-sensitive dye previously added (Fluo-4 AM; Life Technologies). Six replicates were carried out for each bitter stimulus, on separate experimental days, with each replicate consisting of concentration series of each bitter tastant.
(§3) Prior to final analysis, fluorescence data from functional assays, expressed in relative fluorescence units (RFU), underwent three corrections. First, a correction calculated from baseline values was applied to compensate for well-to-well fluctuations. A second correction calculated from negative control values was applied to correct for receptor independent artefacts and signal drift. A third correction calculated from positive control values was applied to facilitate comparison of data obtained from different experimental days. Fluorescence ratios ((F-F0)/F0), obtained by subtracting the background fluorescence from fluorescence peak height and then dividing the difference by the background fluorescence, were then used for data analysis. Variance analyses were performed, followed by Bonferroni multiple comparisons tests (SPSS 20; IBM Corporation, Armonk, NY, USA). Threshold response values were then defined as the first concentration eliciting a significant activation of the receptor, with empty vector acting as a negative control. Finally, dose-response curves were fitted to the Hill equation by nonlinear regression in order to determine half maximal effective concentrations (EC50) and maximal amplitude (SigmaPlot; Systat Software Inc., Chicago, IL, USA).

[1] = system: TAS2R30, -31, -43, and -46; assay: Calcium imaging functional assays, statements across TAS2R loci (variants not resolved); format: cell-based, human
Description: as §1
as §2, with “Six replicates were carried out for each bitter stimulus, on separate experimental days, with each replicate consisting of concentration series of each bitter tastant.” left out
Prior to final analysis, fluorescence data from functional assays, expressed in relative fluorescence units (RFU), underwent three corrections. First, a correction calculated from baseline values was applied to compensate for well-to-well fluctuations. A second correction calculated from negative control values was applied to correct for receptor independent artefacts and signal drift. […]

TAS2R46-H2 = target: T1, TAS2R46-H2 (Homo sapiens, UniProt P59540); assay: Calcium imaging in HEK 293T Gα16gust44 cells transfected with TAS2R46-H2; format: cell-based; conditions: TAS2R46-H2, truncated variant (premature stop codon)
T1 construct: TAS2R46-H2, a truncated, six-transmembrane variant of the receptor; N-terminal signal for cell surface localisation (N); expressed in transfected cells; host or cells: HEK 293T cells stably expressing the G protein chimera Gα16gust44
T1 sequence (P59540 1-249 limits assumed): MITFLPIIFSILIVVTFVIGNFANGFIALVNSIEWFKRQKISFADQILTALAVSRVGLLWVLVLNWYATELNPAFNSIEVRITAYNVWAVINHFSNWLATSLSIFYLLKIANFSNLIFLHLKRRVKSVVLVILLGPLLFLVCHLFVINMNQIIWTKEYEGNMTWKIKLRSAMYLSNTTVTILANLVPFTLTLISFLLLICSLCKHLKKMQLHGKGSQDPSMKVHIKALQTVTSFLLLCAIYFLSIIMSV
Description: as §1, §2, §3

TAS2R46-H1 = target: T2, TAS2R46-H1 (Homo sapiens, UniProt P59540); assay: Calcium imaging in HEK 293T Gα16gust44 cells transfected with TAS2R46-H1; format: cell-based
T2 construct: N-terminal signal for cell surface localisation (N); expressed in transfected cells; host or cells: HEK 293T cells stably expressing the G protein chimera Gα16gust44
T2 sequence (P59540 1-309): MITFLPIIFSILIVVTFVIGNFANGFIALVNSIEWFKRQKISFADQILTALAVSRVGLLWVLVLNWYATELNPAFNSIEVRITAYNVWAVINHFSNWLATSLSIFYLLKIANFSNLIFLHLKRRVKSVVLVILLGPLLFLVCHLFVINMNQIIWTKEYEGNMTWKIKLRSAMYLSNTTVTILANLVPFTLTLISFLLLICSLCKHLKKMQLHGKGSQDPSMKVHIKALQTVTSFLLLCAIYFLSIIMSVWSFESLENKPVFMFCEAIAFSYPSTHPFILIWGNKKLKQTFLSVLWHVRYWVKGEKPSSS
Description: as §1, §2, §3

[2] = system: bitter taste perception of 48 Caucasian subjects; assay: Human psychophysical bitter taste tests (4-AFC recognition thresholds, gLMS intensity ratings); format: in vivo; conditions: for concentration perceived as strongly bitter, fold range across subjects: gLMS strong intensity
Experimental: All were pre-screened to avoid inclusion of individuals with health problems and overt taste pathologies; pregnant and breast-feeding women were also excluded. Each subject participated in the entire course of the study, which included one training session and nine experimental sessions. Visits consisted of DNA collection and psychophysical tests for genotyping and phenotypic analyses, respectively. General taste abilities were also assessed for the bitter, salty, sour, and sweet taste during the first session.
Experiments were conducted at the sensory analysis laboratory of the German Institute of Human Nutrition Potsdam-Rehbruecke, according to good practice guidelines. […] Perceived bitter taste intensities were rated on the general Labelled Magnitude Scale (gLMS; [72–74]). […] For each 4-AFC test, four coded samples containing 10 ml solution were presented simultaneously; one containing the bitter tastant diluted in mineral water (Evian; Danone, Paris, France) and three containing mineral water only. At each concentration, subjects were challenged to identify the different sample, specify whether the quoted sample tasted bitter, and rate the perceived bitter intensity. Tests were performed with nose clips and oral rinsing, with a 45 s pause between concentrations. Training sessions were first used to familiarize subjects with the experimental procedures, and secondly, to assess general taste abilities. Concentration series consisted of geometric sequences of […], with a 1.5 common ratio and the following concentration ranges: 3.5x10^-5–2.0x10^-3M, 6.9x10^-4–4.0x10^-2 M, 2.6x10^-4–1.5x10^-2 M, 6.9x10^-4–4.0x10^-2 M, for salicin, sodium chloride, citric acid, and sucrose used as reference tastants for bitter, salty, sour, and sweet taste, respectively. Following training, subjects tested each tastant in triplicate over nine sessions. Latin square designs extended for first-order carry-over effects were used to counterbalance presentation order of the test compounds over the test sessions, across subjects and for each test compound, as well as presentation order of the samples at each concentration across both repetitions and subjects. Sensory sessions were monitored and data automatically collected (Fizz; Biosystèmes, Couternon, France).
Detection and recognition probabilities of the bitter samples were analysed per repetition and subject. Relationships between probabilities (detection or recognition probabilities) and concentrations were fitted by a logistic regression model using the maximum-likelihood method. Threshold value and slope of the logistic curves were then obtained per repetition and subject, using a self-implemented toolbox (Matlab; The MathWorks Inc.). […] Where required, outliers were discarded according to the Peirce’s criterion. Perceived intensities, expressed in percentage of the scale length, were analysed similarly.

TAS2R30-H1 = assay: Calcium imaging in HEK 293T Gα16gust44 cells transfected with TAS2R30-H1; format: cell-based, human
Description: as §1, §2, §3

TAS2R31-H1 = assay: Calcium imaging in HEK 293T Gα16gust44 cells transfected with TAS2R31-H1; format: cell-based, human
Description: (§4) Allelic responses to agonists were quantified using in vitro heterologous expression assays designed in previous studies of TAS2R receptor function, which successfully mimic responses in vivo with respect to both magnitude and concentration range [17, 23, 25, 26, 46]. DNA fragments containing TAS2R coding sequences were first amplified from genomic DNA by PCR using a proofreading polymerase (PfuUltra II Fusion HotStart DNA Polymerase; Agilent Technologies, Santa Clara, CA, USA) and cloned into a plasmid vector according to the manufacturer’s protocol (Zero Blunt TOPO PCR Cloning Kit; Life Technologies). […]
as §2, with “Six replicates were carried out for each bitter stimulus, on separate experimental days, with each replicate consisting of concentration series of each bitter tastant.” left out
(§5) Prior to final analysis, fluorescence data from functional assays, expressed in relative fluorescence units (RFU), underwent three corrections. […]

TAS2R31-H4 = assay: Calcium imaging in HEK 293T Gα16gust44 cells transfected with TAS2R31-H4; format: cell-based, human
Description: as §4
as §2, with “Six replicates were carried out for each bitter stimulus, on separate experimental days, with each replicate consisting of concentration series of each bitter tastant.” left out
as §5

TAS2R31-H2 = assay: Calcium imaging in HEK 293T Gα16gust44 cells transfected with TAS2R31-H2; format: cell-based, human
Description: as §4
as §2, with “Six replicates were carried out for each bitter stimulus, on separate experimental days, with each replicate consisting of concentration series of each bitter tastant.” left out
as §5

TAS2R31-H3 = assay: Calcium imaging in HEK 293T Gα16gust44 cells transfected with TAS2R31-H3; format: cell-based, human
Description: as §4
as §2, with “Six replicates were carried out for each bitter stimulus, on separate experimental days, with each replicate consisting of concentration series of each bitter tastant.” left out
as §5

TAS2R30-H2 = assay: Calcium imaging in HEK 293T Gα16gust44 cells transfected with TAS2R30-H2; format: cell-based, human
Description: as §1, §2, §3

TAS2R43-H1 = assay: Calcium imaging in HEK 293T Gα16gust44 cells transfected with TAS2R43-H1; format: cell-based, human; conditions: first concentration eliciting significant receptor activation
Description: as §1, §2
as §3, with “Threshold response values were then defined as the first concentration eliciting a significant activation of the receptor, with empty vector acting as a negative control. Finally, dose-response curves were fitted to the Hill equation by nonlinear regression in order to determine half maximal effective concentrations (EC50) and maximal amplitude (SigmaPlot; Systat Software Inc., Chicago, IL, USA).” left out

TAS2R43-H2 = assay: Calcium imaging in HEK 293T Gα16gust44 cells transfected with TAS2R43-H2; format: cell-based, human; conditions: first concentration eliciting significant receptor activation
Description: as §1, §2
as §3, with “Threshold response values were then defined as the first concentration eliciting a significant activation of the receptor, with empty vector acting as a negative control. Finally, dose-response curves were fitted to the Hill equation by nonlinear regression in order to determine half maximal effective concentrations (EC50) and maximal amplitude (SigmaPlot; Systat Software Inc., Chicago, IL, USA).” left out

[3] = system: every known TAS2R in humans; design: method as in PMID 20022913; conditions: complete TAS2R family; cited from earlier work
[4] = first concentration eliciting significant receptor activation

Compound: COC1=C[C@@H](C)[C@@H]2C[C@H]3OC(=O)C[C@H]4C(C)=C(OC)C(=O)[C@H]([C@@]2(C)C1=O)[C@@]34C [quassin]
- receptor variant response (TAS2R46-H3): intermediate
- TAS2Rs activated in vitro [1]: only TAS2R30 and TAS2R46
- receptor variant response (TAS2R46-H2): least sensitive
- receptor variant response (TAS2R46-H1): most sensitive
- recognition threshold, fold range across subjects ([2]; 48 human subjects): 38 fold
- concentration perceived as strongly bitter, fold range across subjects [2]: 8 fold
- concentration perceived as weakly bitter, fold range across subjects ([2]; gLMS weak intensity): 26 fold
- receptor variant response (TAS2R30-H1): responding in ranges matching phenotypic recognition threshold

Compound: C=C[C@H]1C[N@@]2CC[C@H]1C[C@H]2[C@H](O)c1ccnc2ccc(OC)cc12 [quinine]
- receptor variant response (TAS2R31-H1): intermediates
- receptor variant response (TAS2R31-H4): intermediates
- receptor variant response (TAS2R31-H2): sensitive
- receptor variant response (TAS2R31-H3): insensitive

Compound: amarogentin
- EC50 (TAS2R30-H2): 390 nM
- maximum amplitude (TAS2R30-H2): 0.12 ΔF/F
- threshold (TAS2R30-H2; [4]): 300 nM
- threshold (TAS2R46-H3; [4]): 100 µM
- threshold (TAS2R43-H1): 300 µM
- activation concentration of TAS2R43 relative to TAS2R30 ([1]; fold higher than TAS2R30): 3000 fold
- threshold (TAS2R43-H2): 300 µM
- receptor variant response (TAS2R46-H2): not activated at any concentration
- EC50 (TAS2R46-H1): 67000 nM
- maximum amplitude (TAS2R46-H1): 0.57 ΔF/F
- threshold (TAS2R46-H1; [4]): 30 µM
- bitter taste recognition threshold, mode of distribution ([2]; 48 human subjects): 40 nM
- concentration perceived as strongly bitter, fold range across subjects [2]: less than 4 fold
- concentration perceived as weakly bitter, fold range across subjects ([2]; gLMS weak intensity): 17 fold
- concentration perceived as weakly bitter, mode ([2]; gLMS weak intensity): 50 nM
- TAS2Rs responsive in published receptor-agonist inventory [3]: TAS2R1, -4, -39, -43, -46, -30, and -50
- EC50 (TAS2R30-H1): 410 nM
- maximum amplitude (TAS2R30-H1): 0.50 ΔF/F
- threshold (TAS2R30-H1; [4]): 10 nM
